Assay results from ChEMBL document CHEMBL6153140, “Pestones A and B from a Fungus Pestalotiopsis sp. Bound to Mutant p53 and Changed Its Conformation” (J Nat Prod, 2025).
pIC50: −log10 of the molar value. The source made the active and inactive calls. The calls are words filed in the database; no cut-off is given here.

Experiments:
SAOS-2 [1] = assay: Effect on conformation of p53 […] mutant in human SAOS-2 cells at 2 uM incubated for 6 hrs by Hoechst 33342 staining based immunofluorescence analysis; format: functional, cell-based
[2] = Cytotoxicity against human SAOS-2 cells harboring p53 […] mutant incubated for 3 days by MTT assay; format: functional, cell-based; conditions: SAOS-2, 72 h
SAOS-2 [3] = assay: Binding affinity to p53 […] mutant in human SAOS-2 cells assessed as thermal stabilization at 5 uM at 40 to 43 degreeC incubated for 1 hr by CETSA based Western blot analysis; format: cell-based
[4] = Induction of apoptosis in human SAOS-2 cells harboring p53 […] mutant assessed as viable cells at 4 uM incubated for 24 hrs by Annexin V-FITC/PI staining based flow cytometric analysis (reference value: 94.3%); format: functional; conditions: read-out: Activity
[5] = Induction of apoptosis in human SAOS-2 cells harboring p53 […] mutant assessed as early apoptotic cells at 4 uM incubated for 24 hrs by Annexin V-FITC/PI staining based flow cytometric analysis (reference value: 4.1%); format: functional
[6] = Induction of apoptosis in human SAOS-2 cells harboring p53 […] mutant assessed as late apoptotic cells at 4 uM incubated for 24 hrs by Annexin V-FITC/PI staining based flow cytometric analysis (reference value: 1.2%); format: functional
[7] = Induction of apoptosis in human SAOS-2 cells harboring p53 […] mutant assessed as necrotic cells at 4 uM incubated for 24 hrs by Annexin V-FITC/PI staining based flow cytometric analysis (reference value: 0.4%); format: functional
[8] = Induction of apoptosis in human SAOS-2 cells harboring p53 […] mutant assessed as fold increase in early apoptotic cells at 4 uM incubated for 24 hrs by Annexin V-FITC/PI staining based flow cytometric analysis; format: functional
[9] = Induction of apoptosis in human SAOS-2 cells harboring p53 […] mutant assessed as fold increase in late apoptotic cells at 4 uM incubated for 24 hrs by Annexin V-FITC/PI staining based flow cytometric analysis; format: functional
HuCCT-1 = assay: Antitumor activity against human HuCCT-1 cells harboring p53 […] mutant xenografted in male BALB/c Slc-nu/nu mouse model assessed as reduction in tumor volume administered IT(Intratumoral) every other day and measured on day 13 (reference value: 56 to 98 mm3); format: functional; conditions: time 13 day
[10] = Toxicity in male BALB/c Slc-nu/nu mouse assessed as effect on body weight loss administered IT(Intratumoral) every other day and measured after 13 days; conditions: in vivo, 312 h, time 13 day
SAOS-2 [11] = assay: Effect on conformation of p53 […] mutant in human SAOS-2 cells at 100 uM incubated for 6 hrs by Hoechst 33342 staining based immunofluorescence analysis; format: functional, cell-based

## CC(C)=C[C@@H](O)[C@]12O[C@H]1C(=O)C1=C(C2=O)C2[C@H](C)OC1[C@]13C(=O)[C@@]4([C@H](O)C=C(C)C)O[C@H]4C(=O)C1=CO[C@@H](C)[C@H]23 (some centres not stated)
SAOS-2 [1]
  Activity: Active
[2]
  pIC50: 5.96

## CC(C)=C[C@@H](O)[C@]12O[C@H]1[C@H](O)C1=C(C2=O)C2C(C)OC1[C@]13C(=O)[C@@]4([C@H](O)C=C(C)C)O[C@H]4[C@H](O)C1=CO[C@@H](C)[C@H]23 (some centres not stated)
[2]
  pIC50: < 4.70

## CC(C)=C[C@@H](O)[C@]12O[C@H]1C(=O)C1=C(C2=O)C2[C@@H]3[C@@H](C)OC=C4C(=O)[C@@H]5O[C@]5([C@H](O)C=C(C)C)C(=O)[C@]43C1O[C@@H]2C (some centres not stated)
SAOS-2 [1]
  Activity: Active
SAOS-2 [3]
  Activity: Active
[2]
  pIC50: 6.00
[4]
  viability at 4 µM: 80%
[5]
  Activity: 13.6%
[6]
  Activity: 5.7%
[7]
  Activity: 0.7%
[8]
  fold change (FC): 3.3
[9]
  fold change (FC): 4.8
HuCCT-1
  Activity: 140 mm3
[10]
  Activity: Non-toxic

## C/C=C/C1=C(CO)[C@@H](O)[C@@H]2O[C@]2([C@H](O)C=C(C)C)C1=O
SAOS-2 [11]
  Activity: inactive
[2]
  pIC50: < 4.70

## C/C=C/C1=C(CO)C(=O)[C@@H]2O[C@]2([C@H](O)C=C(C)C)C1=O
[2]
  pIC50: 6.04
